We go through 13 molecules from patent US20250154163A1, “Pyrimidinone-Containing 17-Beta-Hydroxysteroid Dehydrogenase Type 13 Inhibitors” (ENANTA PHARMACEUTICALS, INC., priority 2023, published 2025).

In test [1] the target is T1, human HSD17β13 (stable HEK293T cell line overexpressing human HSD17β13) (Homo sapiens, UniProt Q7Z5P4).
T1 construct: expressed in transfected cells
T1 sequence (Q7Z5P4 20-300): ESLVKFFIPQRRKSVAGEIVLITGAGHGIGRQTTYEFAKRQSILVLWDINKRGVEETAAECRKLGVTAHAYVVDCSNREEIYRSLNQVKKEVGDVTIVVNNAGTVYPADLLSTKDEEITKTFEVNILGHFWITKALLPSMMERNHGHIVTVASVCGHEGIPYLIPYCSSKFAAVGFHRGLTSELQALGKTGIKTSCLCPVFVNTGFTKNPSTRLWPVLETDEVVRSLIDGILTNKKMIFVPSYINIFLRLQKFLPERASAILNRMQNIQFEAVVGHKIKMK
Kind of test: HSD17β13 inhibitor cell-based screening assay (conversion of estradiol-d2 to estrone-d2 by RF-MS). The settings on record: conversion of estradiol-d2 to estrone-d2 after 24 hours. A digest of the protocol: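 Cellular IC50 is based on 24-h conversion of estradiol-d2 (5 μM final) to estrone-d2, measured by RF-MS in acetonitrile-precipitated supernatants. Assay uses human HSD17β13-overexpressing HEK293T cells (7.5E3/well, 1% charcoal/dextran FBS MEM), with compounds dosed as a 9-point 1:3 series to 10 μM final. ATPlite luminescence on overexpressing and parent lines measured viability.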

Test [2] addresses T2, Recombinant human 17β-HSD13 (Homo sapiens, UniProt Q7Z5P4).
T2 construct: host or cells: Sf9 insect cells
T2 sequence (Q7Z5P4 20-300): T1 sequence (Q7Z5P4 20-300)
Kind of test: 17β-HSD13 rapid-fire mass spectrometry assay (RF/MS assay). Format: biochemical. The settings on record: inhibition of 17β-HSD13, RF/MS assay; HSD17B13 80 nM, LTB4 10 μM, NAD+ 0.5 mM, RT 3 h. The method, boiled down: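 Purified recombinant human 17β-HSD13 (sf9-expressed, 80 nM) incubated with compound (0–100 μM), 10 μM LTB4 and 0.5 mM NAD+ in 20 mM Tris pH 7.5, 0.005% BSA, 0.01% Tween-20, 3 h at RT. 12-oxo-LTB4 formation quantified by RapidFire MS/MS; percent conversion normalized to controls, IC50 from variable-slope fit, duplicates.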

A value given as a limit tells only on which side of the number the result lay.

For the molecule `COc1cc(F)c(-c2nc3sc4c(O)c(Cl)ccc4c3c(=O)n2Cc2cnco2)c(C2CC2)c1` [Example 137], the IC50 in test [1] and in test [2] was less than 100 nM in each case.

Turning to `O=c1c2c(nc(-c3cc(Cl)c(F)cc3C3CC3)n1Cc1cnco1)sc1c(O)c(Cl)ccc12` [Example 138], the IC50 in test [1] and in test [2] was less than 100 nM throughout.

For the molecule `O=c1c2c(nc(-c3cc(OC(F)(F)F)ccc3C3CC3)n1Cc1cnco1)sc1c(O)c(Cl)ccc12` [Example 143], the half-inhibitory concentration (IC50) in test [1] and in test [2] was less than 100 nM in each case.

As to `O=c1c2c(nc(-c3c(F)cc(F)cc3C3CC3)n1Cc1cnco1)sc1c(O)c(Cl)ccc12` [Example 144], the IC50 in test [1] and in test [2] was less than 100 nM in each case.

Consider `O=c1c2c(nc(-c3c(C4CC4)cc(F)c(F)c3F)n1Cc1cnco1)sc1c(O)c(Cl)ccc12` [Example 147], for which the IC50 in test [1] and in test [2] was less than 100 nM each time.

For the molecule `O=c1ccc(Cn2c(-c3cc(F)c(F)cc3C3CC3)nc3sc4c(O)c(Cl)ccc4c3c2=O)c[nH]1` [Example 169], the half-inhibitory concentration (IC50) in test [1] and in test [2] was less than 100 nM throughout.

`O=c1c2c(nc(-c3ccc(C(F)F)cc3C3CC3)n1Cc1cc(C(F)(F)F)no1)sc1c(O)c(Cl)ccc12` [Example 171]: the IC50 in test [1] and in test [2] was less than 100 nM each time.

`Cn1cc(Cn2c(-c3cc(F)c(F)cc3C3CC3)nc3sc4c(O)c(Cl)ccc4c3c2=O)ccc1=O` [Example 174]: the IC50 in test [1] and in test [2] was less than 100 nM throughout.

As to `O=c1c2c(nc(-c3cc(F)c(C(F)F)cc3C3CC3)n1Cc1cc(C(F)(F)F)no1)sc1c(O)c(Cl)ccc12` [Example 175], the IC50 in test [1] and in test [2] was less than 100 nM in each case.

On to `O=c1c2c(nc(-c3cc(F)c(C(F)F)cc3C3CC3)n1Cc1cnc(C(F)(F)F)nc1)sc1c(O)c(Cl)ccc12` [Example 176], for which the IC50 in test [1] and in test [2] was less than 100 nM throughout.

As for `COc1ccc(-c2nc3sc4c(O)c(Cl)ccc4c3c(=O)n2Cc2cncs2)c(C2CC2)c1` [Example 190], the IC50 in test [1] and in test [2] was less than 100 nM throughout.

For `COc1ccc(-c2nc3sc4c(O)c(Cl)ccc4c3c(=O)n2Cc2cnc(Cl)s2)c(C2CC2)c1` [Example 191], the IC50 in test [1] and in test [2] was less than 100 nM in each case.

Take `COc1ccc(-c2nc3sc4c(O)c(Cl)ccc4c3c(=O)n2Cc2ocnc2F)c(C2CC2)c1` [Example 220]: the IC50 in test [1] and in test [2] was less than 100 nM each time.
